The numbers were not newly measured in patent publication US20210298296A1, “METHOD OF PREVENTING MICROBES IN DISPOSABLE PRODUCTS” (priority 2020, published 2021), which cites them from elsewhere.

Data set [1] deals with nail fungus (onychomycosis). To be noted: 117 patients; six months, twice-daily topical 1% clotrimazole or 100% Tea Tree Oil.
For data set [2], the system named is acne vulgaris (P. acnes).
Data set [3] deals with tinea pedis.
Data set [4] deals with Staphylococcus aureus. To be noted: in vitro.
In data set [5] the test system is S. aureus, Staphylococcus epidermidis, Propionibacterium acnes.
For data set [6], the system named is influenza virus subtype H1N1.
The test system of data set [7] is Leishmania major.
For data set [8], the system named is Trypanosoma brucei.
The test system of data set [9] is cells activated by monocytes. Conditions: water-soluble components of Tea Tree Oil.
Data set [10] relates to human melanoma cells.
Where [11] appears, read: 104 patients, 10% w/w Tea Tree Oil cream vs 1% tolnaftate vs placebo.

On to `Clc1ccccc1C(c1ccccc1)(c1ccccc1)n1ccnc1` [clotrimazole], for which, in data set [1], the “clinical resolution of the infection” value is listed as “clinically documented resolution of the infection” and the fungus in cultures result is on record as “decrease in fungus in cultures”.
Take Tea Tree Oil: the “adverse side effects (skin scaling, dryness, irritation)” value in [2] (human, in vivo) is given as “fewer adverse side effects”.
As for `Cc1cccc(N(C)C(=S)Oc2ccc3ccccc3c2)c1` [tolnaftate], in data set [3] (setting [11]), the “conversion to negative culture at the end of therapy” value is reported as “showed conversion to negative culture” and the “improvements in clinical symptoms” value was “significant improvements in clinical symptoms”. For the same compound, in data set [3] (human, in vivo), the “cure rate for tinea pedis” value is on record as 80%.
In the case of `CC1=CCC(O)(C(C)C)CC1` (stereo not shown) [Terpinen-4-ol, 4-methyl-1-(1-methylethyl)-3-cyclohexen-1-ol], the “activity against Staphylococcus aureus, Terpinen-4-ol compared with whole Tea Tree Oil” value in data set [4] is reported as “equally effective”. The “inhibitory effect on all three organisms” value in [5] was “inhibitory”. Further, in [6], the “antiviral activity against influenza virus subtype H1N1” value is listed as “principally attributed to Terpinen-4-ol”. The “contribution to the antiprotozoal activity of Tea Tree Oil” value in data set [7] and in data set [8] was “contributed significantly to this activity” in each case. Also, in data set [9], the inflammatory response result was “suppress the inflammatory response”. Further, in data set [10], the “growth of human melanoma cells” value is listed as “impair the growth of human melanoma cells”.
On to `O=C(OOC(=O)c1ccccc1)c1ccccc1` [benzoyl peroxide, reference compound], for which the “number of inflamed and non-inflamed lesions” value in data set [2] (124 patients, 5% Tea Tree Oil gel vs 5% benzoyl peroxide lotion) is “significantly reduced the number of inflamed and non-inflamed lesions”.
With `CC1=CCC(C(C)(C)O)CC1` (stereo not drawn) [alpha-terpineol], the “inhibitory effect on all three organisms” value in [5] is on record as “inhibitory”.
For the compound `CC1=CCC2CC1C2(C)C` (stereo not drawn) [alpha-pinene], the “inhibitory effect on all three organisms” value in data set [5] is “inhibitory”.
